Laboratory results taken from US20160097044A1, “Antimicrobial Enzyme Fusions Reduce Resistance and Kill Intracellular Staphylococcus aureus” (The United States of America, as Represented by the …, priority 2014, published 2016).

What was measured:
S. aureus Newbould 305 [1] = assay: Turbidity reduction assay; assay type: cell-based; details: 1 μM enzyme, cells at OD600nm 1.0, FIG. 6a
Protocol: (§1) FIG. 6a depicts the specific activity of peptidoglycan hydrolase fusion constructs in vitro in a turbidity reduction assay with S. aureus Newbould 305 resuspended in lysis buffer to an OD600nm of 1.0 and treated with 1 μM final concentrations of each peptidoglycan hydrolase. The maximum specific activity for three experiments are represented as an average with SEM error bars. FIG. 6b depicts the bacterial burden in mice with mastitis treated with recombinant peptidoglycan hydrolases. Colony Forming Units (CFUs) from infected murine mammary glands following a single treatment with 50 μl of 25 μM peptidoglycan hydrolase (1.25 nmol). Each data point represents the average of duplicate bacterial platings. The horizontal bars represent the average CFU/mg for each group. FIG. 6c illustrates the TNFα response in mice with mastitis that were treated with peptidoglycan hydrolases. Data represents a minimum of 7 measurements in duplicate. Log TNFα was used for statistical analysis. Single asterisks indicate a significant difference from buffer control (p<0.05); double asterisks indicate a significant difference from the parental enzyme (p<0.05).
FIG. 7 depicts a turbidity reduction assay of select peptidoglycan hydrolases against S. aureus Newbould 305. Bacterial cells were resuspended in lysis buffer to an OD600nm of 1.0 and lysed with 1 μM final concentrations of each peptidoglycan hydrolase. The maximum rate of ΔOD of three experiments are represented as an average with error bars representing SEM. Double asterisks indicate significant difference from parental. Mean comparisons were performed with one way ANOVA (P=3.3×10^−5) with t test post hoc analysis with Sidák adjusted alpha (p<0.01).

S. aureus = assay: Murine model of staphylococcal osteomyelitis (femur); assay type: in vivo, C57BL/6J mice; details: 5 mg/kg i.m. at site of infection, twice in 24 h, N=6
Protocol: Neonatal mouse whole calvaria were treated for 4 hours with chimeric peptidoglycan hydrolases or buffer alone, 24 hours post inoculation with GFP-expressing S. aureus. Calvaria were embedded in freeze media, sectioned, and subjected to fluorescence imaging. The image shown is a representative figure for triplicate sections of three separate calvaria. FIG. 8b depicts fluorescence intensity from these sections measured in ImageJ and defined as arbitrary fluorescence standardized to the untreated control. Error bars represent SEM of four replicate experiments. FIG. 8c depicts ex-vivo intracellular S. aureus eradication. Infected calvaria were homogenized and CFU were counted post treatment. Error bars represent SEM. FIG. 8d depicts a murine model of staphylococcal osteomyelitis. C57BL/6J mice were anesthetized and their femurs were surgically exposed. […] The femurs were removed, homogenized, and plated to quantify the bacterial load. […] Asterisks represent statistical significance as determined by one-way ANOVA followed by Tukey's posthoc test.
We utilized a previously described (Marriott, supra) murine model of staphylococcal osteomyelitis that reproduces the clinical and gross pathological phases of inflammatory bone diseases, such as human post-traumatic osteomyelitis. […] Asterisks represent statistical significance as determined by one-way ANOVA followed by Tukey's posthoc test.

[2] = test system: intracellular S. aureus strain UAMS-1 in murine calvaria; assay: Ex vivo neonatal mouse calvaria intracellular eradication; assay type: cell-based
Protocol: Neonatal mouse whole calvaria were treated for 4 hours with chimeric peptidoglycan hydrolases or buffer alone, 24 hours post inoculation with GFP-expressing S. aureus. Calvaria were embedded in freeze media, sectioned, and subjected to fluorescence imaging. The image shown is a representative figure for triplicate sections of three separate calvaria. FIG. 8b depicts fluorescence intensity from these sections measured in ImageJ and defined as arbitrary fluorescence standardized to the untreated control. Error bars represent SEM of four replicate experiments. FIG. 8c depicts ex-vivo intracellular S. aureus eradication. Infected calvaria were homogenized and CFU were counted post treatment. Error bars represent SEM. FIG. 8d depicts a murine model of staphylococcal osteomyelitis. C57BL/6J mice were anesthetized and their femurs were surgically exposed. A trough was drilled through the bone cortex and the damaged bone sites were inoculated with 1×10^3 CFU S. aureus in agarose beads. After 24 hours, mice were treated (i.m. to site of infection) twice in a 24 h period with PBS or 5 mg/kg of triple fusion K-L or K-L-PTD1. The femurs were removed, homogenized, and plated to quantify the bacterial load. Bars indicate the average CFU recovered (N=6). […] Asterisks represent statistical significance as determined by one-way ANOVA followed by Tukey's posthoc test.
To examine the intracellular uptake and eradication in murine osteoblast-containing tissue samples, both ex vivo calvaria (skull cap), and in vivo femur injury models were tested. Calvaria were isolated from neonatal mice and infected with UAMS-1 strain of S. aureus (1×10^6 bacteria/calvaria) for 2 h at 37° C. in osteoblast growth medium in the absence of antibiotics. Following 3× washes with PBS, calvaria were exposed to 50 μg/ml of gentamicin for 15 min to kill extracellular bacteria and further cultured in gentamicin containing osteoblast growth media. After 24 h later, calvaria were treated with peptidoglycan hydrolases (5 μg/ml) or gentamicin only control for 2 h. Lysis buffer containing 0.05% trypsin and 0.25% Triton X-100 was used to homogenize the calvaria, the homogenates were quantitatively plated on LB agar plates, and the CFU were enumerated after 24 h. The data represents triplicate determinants of two separate experiments.
Calvaria were isolated, and infected as described above using GFP-tagged UAMS-1 strain of S. aureus. Two hours post-infection, calvaria were washed with PBS followed by a 15 minutes treatment with 50 μg/ml gentamicin to kill extracellular bacteria. 24 hours post-infection, calvaria were treated with 5 μg/ml peptidoglycan hydrolases or gentamicin only control for two hours and embedded in Tissue-Tek O.C.T compound (Sakura, Torrance, Calif.). […]

S. aureus Newbould 305 [3] = assay: Murine model of mastitis, bacterial load; assay type: in vivo, C57BL6/SJL mice; details: for bacterial load / clearance of mammary glands (in words): single 1.25 nmoles intramammary infusion 30 minutes post infection, 18 h
Protocol: as §1
To evaluate the efficacy of purified, individually administered peptidoglycan hydrolases in a murine model of bovine mastitis, female C57BL6/SJL mice were challenged by the intramammary route with 100 CFU S. aureus Newbould 305 in 50 μl buffer. A single 1.25 nmoles intramammary infusion of each desired peptidoglycan hydrolase (50 μl of a 25 μM solution) or 50 μl PBS was given 30 minutes post infection [with up to six glands treated per animal, each gland receiving a unique treatment] as described earlier (Schmelcher et al. 2012. Appl. Environ. Microbiol. 78:2297-2305; Kerr et al. 2001. Nat. Biotechnol. 19:66-70). Dams were euthanized 18 h post infusion, the mammary glands were aseptically dissected, and portions of the gland were used for determination of bacterial load and TNFα concentrations, as described previously (Schmelcher et al., supra).
Statistical analysis: The variables were analyzed as two-factor mixed models with Treatment as the factor and Mouse as random Blocks. This model […] within mouse correlations. Log(TNFα) was used. The variance grouping technique was used for log CFU and log TNFα to correct for variance heterogeneity. Means comparisons were done with Sidak adjusted p-values so that the experiment-wise error was 0.05. Log(TNFα) is back-transformed to the original units for graphing.

[4] = test system: intracellular S. aureus strain ISP479C in human brain microvascular endothelial cells (hBMEC); assay: Intracellular S. aureus eradication assay in hBMEC; assay type: cell-based; details: 5 μg/ml, 1 h
From the text: (§2) FIGS. 5a-5e depict peptidoglycan hydrolase-protein transduction domain (PGH-PTD) eradication of intracellular S. aureus in cultured cells. Cultured cells were infected, treated with gentamicin to kill extracellular S. aureus, and then treated with the peptidoglycan hydrolases indicated. All results are standardized to the gentamicin (GENT) only control. Nomenclature of the peptidoglycan hydrolase constructs is as in FIG. 1. Asterisks indicate statistical significance detected with single factor ANOVA (α=0.05) with paired t-test posthoc analyses α=0.05 adjusted with Sidák correction for multiple comparisons (for all cases p<0.01). […] Error bars represent SEM. […] Yellow staining in the combined panel represents intracellular co-localization (in a single plane as determined by z-stack analysis) of both S. aureus and K-L-PTD1 (blue arrow). […]
(§3) Three similar intracellular S. aureus eradication assays from three different labs were optimized for (A) a cultured bovine mammary epithelial cell line (MAC-T, Nexia Biotechnologies, Quebec, Canada; Almeida, supra), (B) primary C57BL/6 mouse-derived osteoblasts (mOBs) (McCall et al. 2008. J. Bone Miner. Res. 23: 30-40) or (C) human brain microvascular endothelial cells (hBMEC; Stins, supra). […] The cell lysate was subjected to serial dilution plating, and the resultant CFUs were counted and normalized to the gentamicin control for each assay. […]

[5] = test system: intracellular S. aureus Newbould 305 in bovine mammary epithelial cell line (MAC-T); assay: Intracellular S. aureus eradication assay in MAC-T cells; assay type: cell-based; details: 25 μg in 1 ml DMEM, 2.5 h
From the text: as §2, §3

TNFα = assay: Murine model of mastitis, TNFα response; assay type: in vivo, C57BL6/SJL mice; details: mice with mastitis
Protocol: as §1, with “(p<0.05). […]” for “(p<0.05).”
Statistical analysis: The variables were analyzed as two-factor mixed models with Treatment as the factor and Mouse as random Blocks. […]

Substance | turbidity reduction (in vitro lytic) activity (S. aureus Newbould 305 [1]) | bacterial load in femur compared to no treatment (S. aureus) | live bacteria (CFU) recovered from calvaria ([2]; 5 μg/ml for 2 h, homogenized calvaria) | elimination of GFP-labeled intracellular S. aureus (fluorescence) ([2]; 5 μg/ml, 24 hours post-infection, sectioned calvaria) | greater CFU reduction than triple fusion K-L in the mastitis model (S. aureus Newbould 305 [3]; in vivo, compared with triple fusion K-L) | bacterial load / clearance of mammary glands (in words) (S. aureus Newbould 305 [3]) | intracellular S. aureus CFUs relative to gentamicin only control [4] | intracellular S. aureus CFUs relative to gentamicin only control [5] | TNFα response (in words) (TNFα)
K-L-PTD1: triple fusion K-L with C-terminal PTD 1 (Antp 43-58); SEQ ID NO:53, protein SEQ ID NO:54 | reduced the in vitro activity | significantly reduced bacterial load as compared to no treatment | able to reduce the number of live bacteria recovered from sectioned calvaria | able to eliminate GFP-labeled intracellular S. aureus strain UAMS-1 from murine calvaria | ~3 orders of magnitude | clearance of the mammary gland to a level equivalent to that of lysostaphin alone or L-PTD1 | – | – | –
1-Sigma: commercial lysostaphin (Sigma-Aldrich, St. Louis, Mo.) | – | – | – | – | – | – | Neither commercial lysostaphin (1-Sigma; Sigma-Aldrich, St. Louis, Mo.) nor the C-terminal His6-tagged lysostaphin (construct 1) were able to decrease the intracellular CFUs | Neither commercial lysostaphin (1-Sigma; Sigma-Aldrich, St. Louis, Mo.) nor the C-terminal His6-tagged lysostaphin (construct 1) were able to decrease the intracellular CFUs | –
L-PTD1: lysostaphin-His6 with C-terminal PTD 1 (Antp 43-58); SEQ ID NO:9 | reduced the in vitro activity | – | – | – | – | further decreased the mean bacterial load | – | – | further decreased the mean bacterial load and TNFα concentration
